What was measured:
sclerostin = biological target: T1, sclerostin (Homo sapiens, UniProt Q9BQB4); assay: Modulation of sclerostin/Wnt activity: restoring Wnt3a signaling in the presence of sclerostin; format: cell-based; parameters: key to Sclerostin Inhibition Assay; improvement over sclerostin alone: − indicates no improvement over sclerostin protein alone; + indicates an IC100 >10 μM; ++ indicates an IC100 <10 μM; details: for Sclerostin Inhibition Assay; improvement over sclerostin alone: IC100 class, Wnt3a signaling in human embryonic cells in presence of sclerostin
T1 construct: host or cells: human embryonic cells (the assay cells)
T1 sequence (Q9BQB4 24-213): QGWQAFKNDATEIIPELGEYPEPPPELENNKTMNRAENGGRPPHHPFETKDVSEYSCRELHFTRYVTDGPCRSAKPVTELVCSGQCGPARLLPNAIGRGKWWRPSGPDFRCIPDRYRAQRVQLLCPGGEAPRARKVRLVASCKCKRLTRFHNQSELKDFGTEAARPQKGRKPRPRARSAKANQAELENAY
Procedure: Compounds synthesized in accordance with the methods of Examples 1-14 were assayed for their ability to restore Wnt signaling in the presence of sclerostin consistent with a known sclerostin antagonist, sclerostin Mab. See, Ellies et al., J Bone Miner Res 21:1738-1749 (2006). […] The addition of a known sclerostin antagonist inhibited sclerostin inhibition of Wnt3a signaling, thus restoring Wnt3a signaling in the cell (IC100 at 10 μM) (data not shown).

[1] = Metabolic stability in pooled human liver microsomes; format: in vitro ADME; details: 0.1 μM compound, human liver microsomes 0.1 mg/mL, NADPH, 37 °C, 60 minutes
Procedure: Compounds of the present invention (0.1 μM) were incubated with microsomes at 37 °C for a total of 60 minutes. The reaction contained pooled human liver microsomal protein (0.1 mg/mL) in potassium phosphate buffer with NADPH. At the indicated time points (0, 5, 15, 30 and 60 minutes). Samples were analyzed by LC/MS/MS and remaining parent drug was calculated using Microsoft Excel (2007). Obach R S, Drug Metab Dispos. 27(11):1350-1359 (1999).

[2] = system: MC3T3-E1 (mouse calvarial) osteoblast cells; assay: Bone formation assay: rescue of sclerostin inhibition of mineralization (calcium concentration); format: cell-based; parameters: key to Sclerostin Inhibition of Mineralization; improvement over sclerostin alone: − indicates no improvement over sclerostin protein alone; + indicates an IC100 >10 μM; ++ indicates an IC100 <10 μM; details: for IC100: Mus musculus, MC3T3-E1, IC100 class, read-out: Sclerostin Inhibition of Mineralization, improvement over sclerostin alone; for Sclerostin Inhibition of Mineralization; improvement over sclerostin alone: IC100 class
Procedure: Mineralization (crystalline calcium phosphate formation) represents an in vitro model of bone formation. Using an assay in which the amount of mineralization is quantified by measuring total calcium after solubilization of deposited crystalline calcium phosphate, sclerostin was previously shown to inhibit mineralization in MC3T3-E1 (mouse calvarial) osteoblast cells. Li et al., J Bone Miner Res 24:578-588 (2008). Following the protocol described in Li et al., Compounds were assayed for their ability to rescue the inhibition of mineralization by sclerostin in MC3T3 osteoblast cells. […] Addition of a compound of Examples 1-14 neutralized sclerostin-mediated inhibition of mineralization, as reflected by the increase in calcium concentration.

Row | Sclerostin Inhibition Assay; improvement over sclerostin alone (sclerostin) | Metabolic Stability [1] | Effect of sclerostin on Wnt3a signaling (in words) (sclerostin; human embryonic cells) | Molecule | IC100 [2] | Sclerostin Inhibition of Mineralization; improvement over sclerostin alone [2] | Effect of sclerostin treatment alone on mineralization (in words) [2]
1 | + (+ indicates an IC100 >10 μM) | ++ (++ indicates a stability >1x) |  | COc1ccc2c3ccnc(C(F)(F)F)c3n(CCN3CCOCC3)c2c1F.Cl [Example 1, 4-(2-(8-Fluoro-7-methoxy-1-(trifluoromethyl)-9H-pyrido[3,4-b]indol-9-yl)ethyl)morpholine Hydrochloride Salt] | > 10 µM |  | 
2 | ++ (++ indicates an IC100 <10 μM) | ++ (++ indicates a stability >1x) |  | COc1cc2c(cc1F)c1ccnc(C(F)(F)F)c1n2CCN1CCOCC1.Cl [Example 2, 4-(2-(6-fluoro-7-methoxy-1-(trifluoromethyl)-9H-pyrido[3,4-b]indol-9-yl)ethyl)morpholine Hydrochloride Salt] | < 10 µM |  | 
3 | ++ (++ indicates an IC100 <10 μM) | ++ (++ indicates a stability >1x) |  | COc1cc2c(cc1F)c1ccnc(C(F)(F)F)c1n2CCN1CCC(OC)CC1.Cl [Example 3, 6-Fluoro-7-methoxy-9-(2-(4-methoxypiperidin-1-yl)ethyl)-1-(trifluoromethyl)-9H-pyrido[3,4-b]indole Hydrochloride Salt] | < 10 µM |  | 
4 | + (+ indicates an IC100 >10 μM) | ++ (++ indicates a stability >1x) |  | COc1cc2c(cc1F)c1ccnc(C(F)(F)F)c1n2CCN1CCN(C)C(=O)C1.Cl [Example 4, 4-(2-(6-Fluoro-7-methoxy-1-(trifluoromethyl)-9H-pyrido[3,4-b]indol-9-yl)ethyl)-1-methylpiperazin-2-one Hydrochloride Salt] | > 10 µM |  | 
5 | ++ (++ indicates an IC100 <10 μM) | ++ (++ indicates a stability >1x) |  | COc1cc2c(cc1F)c1ccnc(C(F)(F)F)c1n2CCN1CC(OC(F)F)C1.Cl [Example 5, 9-(2-(3-(Difluoromethoxy)azetidin-1-yl)ethyl)-6-fluoro-7-methoxy-1-(trifluoromethyl)-9H-pyrido[3,4-b]indole Hydrochloride Salt] | < 10 µM |  | 
6 | ++ (++ indicates an IC100 <10 μM) | ++ (++ indicates a stability >1x) |  | COc1cc2c(cc1F)c1ccnc(C(F)(F)F)c1n2CCN1CC2CCC(C1)O2.Cl [Example 6, 3-(2-(6-Fluoro-7-methoxy-1-(trifluoromethyl)-9H-pyrido[3,4-b]indol-9-yl)ethyl)-8-oxa-3-azabicyclo[3.2.1]octane Hydrochloride Salt] | < 10 µM |  | 
7 | ++ (++ indicates an IC100 <10 μM) | + (+ indicates a stability of <1x) |  | COc1cc2c(cc1F)c1ccnc(C(F)(F)F)c1n2CCN1CC2CC1CO2.Cl (stereo not shown) [Example 8, 5-(2-(6-Fluoro-7-methoxy-1-(trifluoromethyl)-9H-pyrido[3,4-b]indol-9-yl)ethyl)-2-oxa-5-azabicyclo[2.2.1]heptane Hydrochloride Salt] | < 10 µM |  | 
8 | ++ (++ indicates an IC100 <10 μM) | + (+ indicates a stability of <1x) |  | COc1cc2c(cc1F)c1ccnc(C(F)(F)F)c1n2CCN1CC(OC)C(OC)C1.Cl (stereo not shown) [Example 9, 9-(2-(3,4-Dimethoxypyrrolidin-1-yl)ethyl)-6-fluoro-7-methoxy-1-(trifluoromethyl)-9H-pyrido[3,4-b]indole Hydrochloride Salt] | < 10 µM |  | 
9 | ++ (++ indicates an IC100 <10 μM) | ++ (++ indicates a stability >1x) |  | COc1cc2c(cc1F)c1ccnc(C(F)(F)F)c1n2CCN1CCC(OC)C1.Cl (stereo not shown) [Example 10, 6-Fluoro-7-methoxy-9-(2-(3-methoxypyrrolidin-1-yl)ethyl)-1-(trifluoromethyl)-9H-pyrido[3,4-b]indole Hydrochloride Salt] | < 10 µM |  | 
10 | ++ (++ indicates an IC100 <10 μM) | ++ (++ indicates a stability >1x) |  | COc1cc2c(cc1F)c1ccnc(C(F)(F)F)c1n2CCN1CC2COCC2C1.Cl (stereo not shown) [Example 11, 5-(2-(6-Fluoro-7-methoxy-1-(trifluoromethyl)-9H-pyrido[3,4-b]indol-9-yl)ethyl)hexahydro-1H-furo[3,4-c]pyrrole Hydrochloride Salt] | < 10 µM |  | 
11 | − | ++ (++ indicates a stability >1x) |  | COc1cc2c(cc1F)c1ccnc(C(F)(F)F)c1n2CCN1CCC(F)(F)CC1.Cl [Example 12, 9-(2-(4,4-Difluoropiperidin-1-yl)ethyl)-6-fluoro-7-methoxy-1-(trifluoromethyl)-9H-pyrido[3,4-b]indole Hydrochloride Salt] |  | − | 
12 | − | ++ (++ indicates a stability >1x) |  | COc1cc2c(cc1F)c1ccnc(C(F)(F)F)c1n2CCn1cncn1.Cl [Example 13, 9-(2-(1H-1,2,4-Triazol-1-yl)ethyl)-6-fluoro-7-methoxy-1-(trifluoromethyl)-9H-pyrido[3,4-b]indole Hydrochloride Salt] |  | − | 
13 | ++ (++ indicates an IC100 <10 μM) | + (+ indicates a stability of <1x) |  | COc1c(F)cc2c3ccnc(C(F)(F)F)c3n(CCN3CCOCC3)c2c1F.Cl [Example 14, 4-(2-(6,8-Difluoro-7-methoxy-1-(trifluoromethyl)-9H-pyrido[3,4-b]indol-9-yl)ethyl)morpholine Hydrochloride Salt] | < 10 µM |  | 
14 | − |  | antagonized Wnt3a signaling | Sclerostin protein: protein that antagonizes Wnt3a signaling and inhibits mineralization; the assay's inhibitor and baseline |  | − | significant decrease in mineralization

Row | Molecule | Sclerostin Inhibition Assay; improvement over sclerostin alone (sclerostin) | Metabolic Stability [1] | Effect of sclerostin on Wnt3a signaling (in words) (sclerostin; human embryonic cells) | IC100 [2] | Sclerostin Inhibition of Mineralization; improvement over sclerostin alone [2] | Effect of sclerostin treatment alone on mineralization (in words) [2]
15 | COc1cc2c(cc1F)c1ccnc(C(F)(F)F)c1n2CCN1C2CCC1COC2.Cl [Example 7, 8-(2-(6-Fluoro-7-methoxy-1-(trifluoromethyl)-9H-pyrido[3,4-b]indol-9-yl)ethyl)-3-oxa-8-azabicyclo[3.2.1]octane Hydrochloride Salt] | ++ (++ indicates an IC100 <10 μM) | + (+ indicates a stability of <1x) |  | < 10 µM |  | 

Source: patent US12324809B2, “Fluoro beta-carboline compounds” (OSSIFI THERAPEUTICS LLC, priority 2018, dated 2025)
